Measurements: US10098878B2, “HIF-2α inhibitors for treating iron overload disorders” (The Board of Regents of the University of Texas System, priority 2014, dated 2018)
Read-outs that look alike come from different tables or passages of the source.

How the values were obtained:
[1] = tested on: 786-0 cells; test: VEGF ELISA Assay; assay type: cell-based; details: Homo sapiens, 786-0, read-out: VEGF ELISA EC50
Experimental: Each concentration had duplicated wells. About 20 hours later, medium was removed by suction and each well was supplied with 180 μL of growth medium. About 20 μl freshly-made 10× compound stocks were added to each well. […] The EC50 was calculated by GraphPad Prism using the dose-response-inhibition (four parameter) equation. The cell seeded plate was then subjected to CellTiter-Glo luminescence cell viability assay (Promega) by adding 50 μL of Celltiter Glo reagent into each well and shaking the plate for 8 minutes at 550 rpm (Thermomixer R, Eppendorf) then read luminescence signal in plate reader (3 second delay, 0.5 second/well integration time, Synergy 2 multi Detection Microplate reader) immediately.

[2] = biological target: T1, HIF-2α HIS TAG-PASB Domain (Homo sapiens, UniProt Q99814); test: HIF-2α Scintillation Proximity Assay (SPA); assay type: binding; details: 100 nM HIF-2α HIS TAG-PASB Domain
T1 construct: 100 nM HIF-2α HIS TAG-PASB Domain
Procedure, shortened: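 IC50 values rest on percent inhibition, where the sample signal is scaled between high and low controls. Wells contain about 100 μL: compound dispensed as 2 μL of DMSO solution, 88 μL protein-probe mix and 10 μL of beads.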

[3] = tested on: 786-O-Hif-Luc cells; test: Luciferase Assay; assay type: cell-based; details: read-out: Luciferase EC50
Experimental: A pool of infected cells were then selected against 2 μg/mL of puromycin (P8833, Sigma) for 10 days followed by limited dilution to select single clones.
Each concentration was tested in triplicate. After about 24 hours, luciferase activity was determined using ONE-Glo Luciferase Assay Reagent (E6110, Promega) following the manufacturer's recommended procedure. EC50 were calculated by using Dotmatics software.

[4] = 150 nM Compound 211 probe, read-out: SPA IC50
[5] = 24 h, 786-O-Hif-Luc cells, about 24 hours
[6] = 786-O-Hif-Luc cells, about 24 hours

T1 sequence (Q99814 240-350 limits assumed): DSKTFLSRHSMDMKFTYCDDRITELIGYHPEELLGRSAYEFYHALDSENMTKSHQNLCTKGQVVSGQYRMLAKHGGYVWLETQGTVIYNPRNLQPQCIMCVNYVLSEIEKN

SMILES	IC50 [2, 4] [nM]	EC50 [3, 5] [nM]	other results
O=S(=O)(c1ccc(Oc2cc(F)cc(Cl)c2)c2c1[C@H](O)CC2)C(F)F [Compound 2, (R)-4-(3-chloro-5-fluorophenoxy)-7-((difluoromethyl)sulfonyl)-2,3-dihydro-1H-inden-1-ol]	–	–	EC50 [1]: 245 nM
N#Cc1cc(F)cc(Oc2ccc(S(=O)(=O)C(F)(F)F)c3c2CC(F)C3N)c1 (stereo not drawn) [Compound 32, 3-((1-amino-2-fluoro-7-((trifluoromethyl)sulfonyl)-2,3-dihydro-1H-inden-4-yl)oxy)-5-fluorobenzonitrile]	3510	2450	–
C[C@@]1(F)Cc2c(Oc3cc(F)cc(C#N)c3)ccc(S(C)(=O)=O)c2[C@@H]1O [Compound 64, 3-fluoro-5-(((1S,2R)-2-fluoro-1-hydroxy-2-methyl-7-(methylsulfonyl)-2,3-dihydro-1H-inden-4-yl)oxy)benzonitrile]	2030	2830	–
Cc1cncc(Oc2ccc3c(c2Br)[C@@H](O)C(F)(F)S3(=O)=O)c1 [Compound 192, (R)-4-bromo-2,2-difluoro-3-hydroxy-5-((5-methylpyridin-3-yl)oxy)-2,3-dihydrobenzo[b]thiophene 1,1-dioxide]	2900	1420	–
O=S1(=O)c2ccc(OC3CCOCC3)c(C(F)F)c2C(O)C1(F)F (stereo not drawn) [Compound 164, 4-(Difluoromethyl)-2,2-difluoro-3-hydroxy-5-((tetrahydro-2H-pyran-4-yl)oxy)-2,3-dihydrobenzo[b]thiophene 1,1-dioxide]	1900	1540	–
Cc1cc(Oc2cc(F)cc(C#N)c2)c2c(c1S(C)(=O)=O)C(O)C(F)(F)C2 (stereo not drawn) [Compound 12, 3-((2,2-Difluoro-1-hydroxy-6-methyl-7-(methylsulfonyl)-2,3-dihydro-1H-inden-4-yl)oxy)-5-fluorobenzonitrile]	800	775	–
O=S(=O)(c1ccc(Oc2cc(Cl)c[n+]([O-])c2)c2c1[C@H](O)C(F)(F)C2)C(F)(F)F [Compound 28, (S)-3-Chloro-5-((2,2-difluoro-1-hydroxy-7-((trifluoromethyl)sulfonyl)-2,3-dihydro-1H-inden-4-yl)oxy)pyridine 1-oxide]	66	173	–
N#Cc1cc(F)cc(Oc2ccc3c(c2CF)C(O)C(F)(F)S3(=O)=O)c1 (stereo not drawn) [Compound 152, 3-((2,2-Difluoro-4-(fluoromethyl)-3-hydroxy-1,1-dioxido-2,3-dihydrobenzo[b]thiophen-5-yl)oxy)-5-fluorobenzonitrile]	86	126	–
N#Cc1c(Oc2cc(F)cc(F)c2)ccc2c1C(O)C(F)(F)S2(=O)=O (stereo not drawn) [Compound 207, 5-(3,5-Difluorophenoxy)-2,2-difluoro-3-hydroxy-2,3-dihydrobenzo[b]thiophene-4-carbonitrile 1,1-dioxide]	46	427	–
CS(=O)(=O)c1ccc(Oc2cncc(C#N)c2)c2c1[C@H](O)[C@H](F)C2 [Compound 77, 5-(((1S,2R)-2-fluoro-1-hydroxy-7-(methylsulfonyl)-2,3-dihydro-1H-inden-4-yl)oxy)nicotinonitrile]	1800	1070	–
N#Cc1cncc(Oc2ccc3c(c2C(F)F)C(O)C(F)(F)S3(=O)=O)c1 (stereo not drawn) [Compound 147, 5-((4-(Difluoromethyl)-2,2-difluoro-3-hydroxy-1,1-dioxido-2,3-dihydrobenzo[b]thiophen-5-yl)oxy)nicotinonitrile]	–	–	IC50 ([2]; SPA IC50, 150 nM Compound 211 probe): 120 nM; EC50 [3]: 170 nM
NC1CS(=O)(=O)c2ccc(Oc3cc(F)cc(Cl)c3)c(C(F)F)c21 (stereo not drawn) [Compound 127, 3-Amino-5-(3-chloro-5-fluorophenoxy)-4-(difluoromethyl)-2,3-dihydrobenzo[b]thiophene 1,1-dioxide]	7880	6890	–
N=S1(=O)c2ccc(Oc3cc(F)cc(F)c3)c(Br)c2C(O)C1(F)F (single isomer, unassigned) [Compound 142, 4-bromo-5-(3,5-difluorophenoxy)-2,2-difluoro-3-hydroxy-1-imino-2,3-dihydro-1H-1λ^4-benzo[b]thiophene 1-oxide]	239	–	EC50 [3, 6]: 286 nM
CS(=O)(=O)c1ccc(Oc2cc(F)cc(C#N)c2)c2c1[C@H](N)C(F)(F)[C@@H]2F [Compound 110]	510	1650	–
N#CN=S1(=O)CC(O)c2c1ccc(Oc1cc(F)cc(F)c1)c2C(F)F (stereo not drawn) [Compound 158, N-(4-(Difluoromethyl)-5-(3,5-difluorophenoxy)-3-hydroxy-1-oxido-2,3-dihydro-1λ^4-benzo[b]thiophen-1-ylidene)cyanamide]	1470	1880	–
N#Cc1cc(F)cc(Oc2ccc(S(=O)(=O)C(F)(F)F)c3c2CC(F)C3N)c1 (single isomer, unassigned) [Compound 29, 3-((1-amino-2-fluoro-7-((trifluoromethyl)sulfonyl)-2,3-dihydro-1H-inden-4-yl)oxy)-5-fluorobenzonitrile]	90	897	–
N#CN=S(=O)(CF)c1ccc(Oc2cc(F)cc(C#N)c2)c2c1[C@H](O)[C@H](F)C2 (single isomer, unassigned) [Compound 40]	58	–	EC50 [3, 6]: 153 nM
C[S+]([O-])c1ccc(Oc2cc(F)cc(C#N)c2)c2c1[C@H](O)C(F)(F)C2 (stereo partly drawn) [Compound 36, 3-[(1S)-2,2-Difluoro-1-hydroxy-7-methylsulfinyl-indan-4-yl]oxy-5-fluoro-benzonitrile]	2000	2280	–
N#CN=S(=O)(CF)c1ccc(Oc2cc(F)cc(C#N)c2)c2c1[C@H](O)C(F)(F)C2 (single isomer, unassigned) [Compound 49]	71	100	–
CS(=O)(=NC#N)c1ccc(Oc2cc(F)cc(C#N)c2)c2c1[C@H](O)[C@H](F)C2 (mixture of isomers) [Compound 66, N-(((2R,3S)-7-(3-cyano-5-fluorophenoxy)-2-fluoro-3-hydroxy-2,3-dihydro-1H-inden-4-yl)(methyl)(oxo)-λ^6-sulfanylidene)cyanamide]	63	115	–
O=S1(=O)c2ccc(Oc3cccc4cn[nH]c34)c(C(F)F)c2C(O)C1(F)F (stereo not drawn) [Compound 205, 5-((1H-Indazol-7-yl)oxy)-4-(difluoromethyl)-2,2-difluoro-3-hydroxy-2,3-dihydrobenzo[b]thiophene 1,1-dioxide]	1760	6900	–
COCCNC1c2c(ccc(Oc3cc(F)cc(F)c3)c2Br)S(=O)(=O)C1(F)F (stereo not drawn) [Compound 143, 4-Bromo-5-(3,5-difluorophenoxy)-2,2-difluoro-3-((2-methoxyethyl)amino)-2,3-dihydrobenzo[b]thiophene 1,1-dioxide]	< 5	1780	–
N#CN=S1(=O)c2ccc(Oc3cc(F)cc(F)c3)c(Cl)c2[C@@H](O)C1(F)F (stereo partly drawn) [Compound 176, N-((3R)-4-Chloro-5-(3,5-difluorophenoxy)-2,2-difluoro-3-hydroxy-1-oxido-2,3-dihydro-1λ^4-benzo[b]thiophen-1-ylidene)cyanamide]	174	2160	–
CC1(O)c2c(ccc(Oc3cc(F)cc(F)c3)c2Br)S(=O)(=O)C1(F)F (stereo not drawn) [Compound 208, 4-Bromo-5-(3,5-difluorophenoxy)-2,2-difluoro-3-hydroxy-3-methyl-2,3-dihydrobenzo[b]thiophene 1,1-dioxide]	83	296	–
COc1cc(F)cc(Oc2ccc3c(c2C#N)[C@@H](O)C(F)(F)S3(=O)=O)c1 [Compound 191, (R)-2,2-difluoro-5-(3-fluoro-5-methoxyphenoxy)-3-hydroxy-2,3-dihydrobenzo[b]thiophene-4-carbonitrile 1,1-dioxide]	66	15000	–
O=S1(=O)c2ccc(Oc3cncc(F)c3)c(Br)c2[C@@H](O)C1(F)F [Compound 187, (R)-4-bromo-2,2-difluoro-5-((5-fluoropyridin-3-yl)oxy)-3-hydroxy-2,3-dihydrobenzo[b]thiophene 1,1-dioxide]	305	126	–
N#Cc1c(Oc2cc(F)cc(F)c2)ccc2c1[C@@H](O)CS2(=O)=O [Compound 178, (R)-5-(3,5-difluorophenoxy)-3-hydroxy-2,3-dihydrobenzo[b]thiophene-4-carbonitrile 1,1-dioxide]	120	366	–
N#Cc1cccc(Oc2ccc3c(c2C(F)F)[C@@H](O)C(F)(F)S3(=O)=O)c1 [Compound 199, (R)-3-((4-(difluoromethyl)-2,2-difluoro-3-hydroxy-1,1-dioxido-2,3-dihydrobenzo[b]thiophen-5-yl)oxy)benzonitrile]	34	33	–
O=S1(=O)c2ccc(Oc3ccc(F)c(F)c3)c(C(F)F)c2[C@@H](O)C1(F)F [Compound 200, (R)-4-(Difluoromethyl)-5-(3,4-difluorophenoxy)-2,2-difluoro-3-hydroxy-2,3-dihydrobenzo[b]thiophene 1,1-dioxide]	24	79	–
